Counter-ions that a name gives are not always drawn.
Assay: Preliminary test: dissolution of compound A with an acidic regulator
Assay type: physicochemical
Settings: with an acidic regulator (citric acid or tartaric acid)
From the text: To improve the solubility of insoluble medicines, surfactants, acid-base regulators and the like are mostly used in the prior art. […] However, the granules obtained in the preliminary study process can solve the problem of solubility, but the stability is insufficient. Therefore, how to improve the solubility of the active substance provided by the present invention and ensure the stability has become a difficult point in a medicine technology.

Question: Which “Dissolution of compound A” value does the source give for `CCn1nnc(-c2ccc(OCCC(C)(C)CCN3CCN(c4ccnc(N)c4)S3(=O)=O)nc2)n1` [compound A, 2-(2-aminopyridine-4-yl)-5-(5-((5-(2-ethyl-2H-tetrazole-5-yl)pyridine-2-yl)-oxy)-3,3-amyldimethyl)-1,2,5-thiadiazolidin 1,1-dioxide hydrochloride] here?
Answer: complete dissolution

Reference: US20230263789A1, “PHARMACEUTICAL COMPOSITION AND PREPARATION METHOD” (JIANGSU KANION PHARMACEUTICAL CO., LTD., priority 2020, published 2023)
